In patent publication EP0511816B1, “Neurotrophic peptide derivative” (SUMITOMO PHARMACEUTICALS COMPANY, LIMITED, priority 1991, dated 1999) one finds neurotrophic activity and production of acetylcholine data, which are given here for two molecules.

Ends that are not written are not given here. Peptide text beside a SMILES is read from it.

Assay [1] concerns tissue of medial septum nuclei. Nature of the assay: neurotrophic activity: acceleration of acetylcholine synthesis in medial septum nuclei tissue (method of Ojika et al.). Type of assay: cell-based. The note with it: qualitative statement, compared with rat-derived HCNP; no figures given. The source says:
The neurotrophic activity (also called neurotrophic factor activity) refers to, for example, an action of regulating differentiation and maturation of neuronal cells, namely, an action of accelerating the acetylcholine synthesis in the tissue of medial septum nuclei which is rich in cholinergic neurons.
The human-derived neurotrophic peptide or its derivatives of the present invention can regulate differentiation and maturation of neuronal cells. That is, the neurotrophic peptide and derivatives thereof accelerate the acetylcholine synthesis in the tissue of medial septum nuclei. The biological activity can be determined by the method of Ojika, K., et al. (Reference 66).

For assay [2], the system named is tissue of medial septum nuclei. The note with it: rat medial septum nuclei acetylcholinergic neuron; Reference 1; cited from earlier work.

On to `CC(C)C[C@H](NC(=O)[C@@H]1CCCN1C(=O)CNC(=O)[C@H](CO)NC(=O)[C@H](Cc1c[nH]c2ccccc12)NC(=O)[C@H](CCCCN)NC(=O)[C@H](CO)NC(=O)[C@H](CC(C)C)NC(=O)[C@H](CC(=O)O)NC(=O)[C@@H](NC(=O)[C@@H]1CCCN1)C(C)C)C(=O)O` [hHCNP] (H-PVDLSKWSGPL-OH), for which the neurotrophic activity entry in assay [1] is listed as “neurotrophic activity similar to rat-derived HCNP was noted”.

“AADISQWAGPL [HCNP, Hippocampal cholinergic neurotrophic peptide of 11 amino acid residues isolated from hippocampal tissue of neonatal rat by Ojika et al]”: the production of acetylcholine result in assay [2] is on record as “enhances production of acetylcholine”.
